In patent US8242152B2, “Use of 4-[(4-thiazolyl)phenoxy]alkoxy-benzamidine derivatives for the prophylaxis and treatment of osteoporosis” (Dong Wha Pharmaceutical Co., Ltd., priority 2001, dated 2012):
pIC50, pKi: −log10 of the molar value.

Tests used:
[1] = system: rabbit osteoclasts; assay: TRAP(+) MNC formation in isolated rabbit osteoclast cultures, single treatment without LTB4 (Example 6); assay type: cell-based; settings: for number of TRAP(+) MNCs / osteoclast formation: 1000 nM, single treatment without LTB4, dentine slices, 48 hrs (FIG. 3-8)
Method: (§1) Rabbit osteoclasts were isolated as described by Victoria Tai's report (Doctoral Dissertation, 1997, Graduate Department of Pharmacology, University of Toronto) and Rraser P. Coxon et al. (Methods in Molecular Medicine, vol 80). Neonatal rabbits (New Zealand White) were sacrificed by ether-inhaling method under a hood. The removed long bones were dissected free of attached soft tissues and placed into ice-cold PBS. The long bones were cut longitudinally and mechanically curetted in 10 ml medium 199 with antibiotics (10 ug/ml penicillin G and 50 ug/ml gentamycin) in a glass Petri dish. Each bone was curetted with a scalpel blade and was finely minced. The fragments were then vigorously agitated by pipetting up and down using a pasteur pipette and vortex-mixed for 30 seconds. The fragments were allowed to settle and the cell suspension was then transferred to a 50 ml tube and the previous step repeated three times to a total volume of 40 ml. The bone fragments were allowed to settle (>1 min). The cell suspension was then transferred to a new 50 ml tube, passed through a 40 um cell strainer and centrifuged at 200 g for 8 minutes. The supernatant was removed and the pellet was immediately resuspended in α-MEM with 2% FBS (bicarbonate buffered medium).
(§2) 40 uL droplets of osteoclast-containing suspensions were plated onto 60 mm tissue culture plastic dishes or on dentine slices in 96-well microtiter plates in 2% medium. The cells were allowed ninety minutes for attachment before the addition of 2 mL α-MEM with 2% FBS. After 24 hr culture, cells were washed to remove non-adherent cells and replaced with fresh medium as describes below.
After 24 hr in culture, the medium was replaced with fresh medium containing control, LTB4 receptor antagonists (1000 nM), DW1350 (10, 100 and 1000 nM) or LTB4 (100 nM) and the cultures were continued for an additional 48 hrs.
(§3) All cells were cultured at 37° C. in a humidified atmosphere of 95% air and 5% CO2 in bicarbonate buffered medium at pH 7.4.
(§4) Differentiated osteoclasts are multinucleated cells and have specific enzyme activity, such as ‘tartrate-resistant acid phosphatase (TRAP)’. Therefore, Osteoclast formation was determined by counting the number of TRAP-positive multinucleated cells (TRAP(+) MNCs).
(§5) After culture, the cells were fixed with 10% neutral buffered formalin for 30 min at 4° C., washed twice in distilled water and stained for TRAP activity by incubating with substrate. The number of TRAP(+)MNC with more than 2 nuclei was counted under photomicroscope.
(§6) Results were expressed as mean number of TRAP(+)MNC±SD of All experiments were done at least twice. Statistical analysis was performed for each experiment by student t-test.

[2] = system: LTB4-induced osteoclast formation; assay: LTB4-induced osteoclast formation in rabbit osteoclast cultures, co-treatment and pre-treatment (Example 6); assay type: cell-based
Method: as §1, §2
After 24 hr in culture, the medium was removed and replaced with fresh medium containing both LTB4 receptor antagonist (1000 nM) and LTB4 (100 nM) or both DW1350 (1000 nM) and LTB4 (100 nM). The cultures were continued for an additional 48 hrs.
After 6 hrs in culture, the medium was removed and cells were pretreated with LTB4 receptor antagonists such as LY292728 (Journal of Medical Chemistry, 1995, vol. 38, No. 10, p 4411-4432), SB209247 (Journal of Medical Chemistry, 1996, vol. 39, No. 19, p 3837-3841), LY293111(Journal of Medical Chemistry, 1995, vol. 38, No. 10, p 4411-4432) and LY223982 (Journal of Medical Chemistry, 1993, vol. 36, p 3333-3340) or DW1350-containing medium and culture continued for 18 hrs. The medium was replaced with medium containing both LTB4 receptor antagonist and LTB4 or DW1350 and LTB4. The cultures were continued for an additional 48 hrs.
as §3, §4, §5, §6

[3] = molecular target: LTB4 receptor (Homo sapiens, UniProt Q15722); settings: cited from earlier work
Chain of LTB4 receptor (Q15722 whole entry): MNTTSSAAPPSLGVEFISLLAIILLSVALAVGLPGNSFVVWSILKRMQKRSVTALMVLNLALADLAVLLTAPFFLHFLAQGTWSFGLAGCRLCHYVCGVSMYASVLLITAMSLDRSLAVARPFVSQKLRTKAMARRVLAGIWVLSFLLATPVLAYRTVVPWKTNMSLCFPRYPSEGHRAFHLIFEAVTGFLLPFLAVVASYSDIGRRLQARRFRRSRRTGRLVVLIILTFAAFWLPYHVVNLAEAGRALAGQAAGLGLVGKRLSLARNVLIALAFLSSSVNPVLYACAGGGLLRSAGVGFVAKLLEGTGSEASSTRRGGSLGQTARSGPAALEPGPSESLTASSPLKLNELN

[4] = 1000 nM in the presence of 100 nM LTB4 (FIGS. 6˜8), regimen not separated

| SMILES | number of TRAP(+) MNCs / osteoclast formation [1] | LTB4-stimulated osteoclast formation [2, 4] | pIC50 [3] | number of TRAP(+) MNCs ([1]; 10˜1000 nM, 48 hours, tissue culture dish, single treatment (FIG. 1, 2)) | LTB4-stimulated osteoclast formation ([2]; pre-treatment 18 hrs, then 1000 nM compound + 100 nM LTB4 for 48 hrs, dentin slices) | LTB4-stimulated osteoclast formation ([2]; simultaneous treatment: 1000 nM compound + 100 nM LTB4, 48 hrs, dentin slices) | pKi [3] |
| --- | --- | --- | --- | --- | --- | --- | --- |
| COc1ccc(/C=C/CCCCOc2ccc(C(=O)c3cccc(C(=O)O)c3)cc2CCC(=O)O)cc1 [LY223982] | did not change the number of osteoclasts | significantly abolished LTB4-stimulated osteoclast formation | 7.89 |  |  |  |  |
| CCc1cc(-c2ccc(F)cc2)c(O)cc1OCCCOc1ccc2c(=O)c3cc(C(=O)O)ccc3oc2c1CCC(=O)O [LY292728] | no significant effect on osteoclast formation compared to the control culture |  |  | no significant effect on the number of osteoclasts | appeared to suppress the formation of osteoclasts | significantly abolished osteoclast formation increased by LTB4 | 9.30 |
| CCCc1c(OCCCOc2cc(O)c(-c3ccc(F)cc3)cc2CC)cccc1Oc1ccccc1C(=O)O [LY293111] | did not change the number of osteoclasts | significantly abolished LTB4-stimulated osteoclast formation |  |  |  |  | 7.60 |
| O=C(O)/C=C/c1nc(CSc2c(Cl)cccc2Cl)ccc1OCCc1ccccc1 [SB209247] | did not change the number of osteoclasts | significantly abolished LTB4-stimulated osteoclast formation |  |  |  |  |  |
